# Results: a melting point compilation (Tetko et al.; mined from patent text by program, amines drawn as free bases though some values may be those of a salt)
row,melting point [°C],Compound
1,97,CSc1nc(OCC(F)(F)F)nc2sc(C)cc12
2,110,COC(C)=CC(=O)Nc1cccc(Br)c1
3,141 to 142,CC/C(=C(\c1ccc(/C=C/C(=O)O)cc1)c1ccc(OC(=O)c2ccno2)cc1)c1ccccc1
4,270,O=C1C2=C(SCCO2)C(O)N1c1ccc2ccc(Cl)cc2n1 (configuration not stated)
5,134 to 135,COC(OC)C(CNC(=O)c1cc2cc(O)cc([N+](=O)[O-])c2[nH]1)SCc1ccccc1 (configuration not stated)
6,144 to 146,CC(C)(C)OC(=O)NCc1cccc(C(=O)OCC#N)c1O
7,160 to 162,C(=C\c1nc(COc2ccc(-n3ccnc3)cc2)co1)/c1ccccc1
8,85 to 87,CCCCCCCN(CCOCCSc1nc(-c2ccc(OC)cc2)c(-c2ccc(OC)cc2)[nH]1)C(=O)NC(C)C
9,108,CNC(=O)C1CCN(S(=O)(=O)c2ccc(Cl)c(COc3cccc4c(-n5ccnc5)cc(C)nc34)c2Cl)C1 (configuration not stated)
10,67 to 68,O=C(OCc1ccc(OCCCc2ccc(Cl)cc2)cc1)c1cccnc1
11,46 to 48,CCNC(=O)c1c([Si](C)(C)C)csc1Cl
12,190 to 192,CCCCNC(=O)NS(=O)(=O)c1ccc(CCNC(=O)N2Cc3c(Cl)cc(Cl)cc3C2=O)cc1
13,131 to 133,O=c1[nH]c(=O)n(CCCCN2CCC(OC(c3ccccc3)c3ccccc3)CC2)c2ccccc12
14,116 to 124,COc1ccccc1C1(C(=O)O)CCCC1
15,203 to 205,COc1cccc2c3c(c(=O)[nH]c12)CCCN3c1ccccc1C
16,124 to 126,COC(=O)c1cnc(N2CCN(CC3CC3)C2=O)s1
17,89 to 92.5,CCCCCCCCCCCCCCCCCCOc1ccc(N(CC(=O)O)C(=O)OC(C)(C)C)cc1
18,233 to 237,O=C(O)COc1ccc2c(-c3ccc(F)cc3)noc2c1Cl
19,137 to 138,O=c1c2ccccc2ccn2c(SC(F)(F)F)ccc12
20,163 to 165,CC(=O)NCC1OC(n2cc(C=CBr)c(=O)[nH]c2=O)CC1Cl (configuration not stated)
21,99 to 100,CC(C)=CCOc1ccc(C(=O)C=Cc2ccncc2)c(O)c1
22,97,N=c1sc2cc(OC(F)(F)F)ccc2n1CCS(=O)C1CCN(Cc2ccccc2)CC1 (configuration not stated)
23,141,C=CC1(C=CC)OC(=O)N(c2cc(Cl)cc(Cl)c2)C1=O (configuration not stated)
24,77 to 79,CC(C)=Cn1ccnc1[N+](=O)[O-]

row,melting point [°C],Compound
1,210,CC(=O)Nc1cc(NS(=O)(=O)CCl)c(Cl)cc1F
2,160,CC(CNS(C)(=O)=O)Nc1nc(Cl)ncc1Cl (configuration not stated)
3,103 to 107,Clc1ccccc1-c1cc(-c2ccccc2)c(-c2ccccc2)s1
4,168 to 169,CCCCCCC(=N)NC(=O)Nc1ccc(Cl)cc1
5,158 to 159,CCOC(=O)c1c(Nc2c(C)cccc2Cl)n[nH]c1C
6,172,COc1ccc(C(=O)Nc2nc(C(Cl)(Cl)Cl)ns2)cc1
7,121,Cc1ccc(Br)c(C)c1C(=O)O
8,101 to 103,CCCCc1nc(Cl)c(CO)n1Cc1ccc(N)cc1
9,74.5 to 76,"CC(C)C(C)(N)C(N)=O (single isomer, unassigned; (+))"
10,121 to 122,CCOc1ccc(-c2ccc(C3COC(c4c(Cl)cncc4Cl)=N3)cc2)cc1 (configuration not stated)
11,124,O=C(NCc1ccccc1)c1ccc(F)c2c1CC(N(CCCc1c[nH]c3ccc(F)cc13)C1CCC1)CO2 (configuration not stated)
12,90 to 92.5,CC1(OCCN(Cc2ccccc2)C(=O)C(F)(F)F)C=CC=C([N+](=O)[O-])C1NC(=O)C(F)(F)F (configuration not stated)
13,122 to 123,OCC1OC(SCCCc2ccccc2)C(O)C(O)C1O (configuration not stated)
14,> 220,Nc1nc(-c2c(-c3ccccc3)c3ccccc3[nH]c2=O)cs1
15,225 to 226,CN(C)S(=O)(=O)c1cn(C)c2ccccc2c1=O
16,108 to 111,O=C1Cc2c(cccc2N(CCN(Cc2ccccc2)C(=O)C(F)(F)F)C(=O)C(F)(F)F)N1
17,131,O=C(O)c1cc(Oc2ncc(C(F)(F)F)cc2Cl)ccc1[N+](=O)[O-]
18,250,O=C(CNC(=O)C(Cc1ccccc1)CP(=O)(O)O)OCc1ccccc1 (configuration not stated)
19,119 to 121,CCOC(=O)c1cn2c(ccc3cc(OC)ccc32)n1
20,60 to 62,CCCOC(=O)CCc1cc(Cl)ccc1C(=O)CCCNC(C)=O
21,244 to 245,CC1(C)OC(=O)Nc2ccc(-c3cccc([N+](=O)[O-])c3)cc21
22,208 to 210,CC(C)(C)c1cc(CCc2ccccc2NC(=O)NCC2CCCCC2)cc(C(C)(C)C)c1O
23,62 to 64,Cc1ccccc1C(=O)NCN1CCN(c2ccccc2C#N)CC1
24,223,CN1CC(=O)NC(=O)N1c1cc(Cl)c(Oc2ccc(S(C)(=O)=O)cc2)c(Cl)c1

# The remaining lines, values behind:
row,Compound,melting point [°C]
1,O=S(=O)(c1ccccc1)N1CCC(Nc2nc(OCC(F)(F)F)nc(N3CCCC3)n2)CC1,212 to 213
2,O=C(CCl)Nc1ccc2ncnc(Nc3cccc(I)c3)c2c1,> 300
3,CC(Oc1ccc(Oc2nc3ccc(Cl)cc3s2)cc1)C(=S)OC[Si](C)(C)C (configuration not stated),90
4,CCOC(=O)c1ccc(NCCCCCCCCCCC[Si](C)(C)C)cc1,66 to 68
5,CCC(CC)c1ccc(Cl)c2nc3n(c12)CCCN3c1cnc(N(C)C)cc1C,228 to 230
6,CN1CCC(c2cc3c(N)cccc3c(=O)[nH]2)CC1,222 to 224
7,COc1ccc(-c2nc3sccn3c2/C=C/C(=O)c2cccs2)cc1,169 to 172
8,Cc1cc(-c2cnn3c(C(F)(F)F)cc(-c4cccc(C(F)(F)F)c4)nc23)cc(C)n1,236
9,O=C1c2ccccc2C(=O)N1Cc1cc(F)ccc1[N+](=O)[O-],198 to 200
10,O=C(Nc1ccc(OCCN2CCOCC2)c2ccccc12)c1cc(F)cc(N2CCOCC2)c1,123 to 124
11,COC(=O)c1cccc2c(-c3ccc(O)cc3)n(C(C)C)nc12,195 to 196
12,CC(C)CC(=O)Nc1cccc(-c2ccnc3c(C(=O)c4ccsc4)cnn23)c1,137 to 139
13,CC1NCc2ccsc2C1c1ccccc1 (configuration not stated),78
14,O=C1CCNC(=O)C1C(=O)c1ccc(Cl)cc1[N+](=O)[O-] (configuration not stated),161 to 164
15,CC(=O)Nc1ccc(OCCOc2ncc(Cl)cn2)cc1,160
16,CCC=Cc1c(C(C)C)nc(C(C)C)c(CO)c1-c1ccc(F)cc1,115 to 117
17,C=C(CC)C(=O)c1ccc(OC(C)(C)C(=O)O)c(Cl)c1Cl,88 to 89
18,CC1(C)COP(=O)(Cc2ccc(N)cc2)OC1,152 to 153
19,COC1CCN(S(=O)(=O)c2ccc(S(N)(=O)=O)c(Cl)c2)CC1,165 to 167
20,Clc1ccc(C(Br)C(Br)c2ncon2)cc1 (configuration not stated),141 to 142
21,O=C(c1ccc2c(c1)C(=O)N1CCC[C@H]1CO2)N1CCCCC1,140
22,CC(C)(C)N1CC(O)C1,42 to 43
23,COc1ccc2c(c1)C(=O)C(=Cc1cccc([N+](=O)[O-])c1)CO2,157 to 159
24,CCOC(=O)c1c2n(c3cc(N4CCN(C)CC4)c(F)cc3c1=O)CCCC2,163 to 165
25,CCCCCCCCCCCC(=O)Nc1cc([N+](=O)[O-])ccc1F,75 to 77
26,NS(=O)(=O)c1ccc(C2=C(c3ccc(F)c(F)c3)CCC2)cc1,147 to 148
27,COC(=O)[C@H](Cc1ccc(OCCc2nc(-c3ccccc3)oc2C)cc1)Nc1ccccc1C(=O)c1ccccc1,55 to 60

row,Compound,melting point [°C]
1,CCCCCCCC(c1cc(C)cc(N=Nc2ccc(C)cc2[N+](=O)[O-])c1O)c1cc(C)cc(N=Nc2ccc(C)cc2[N+](=O)[O-])c1O (configuration not stated),145
2,COc1ccc(S(=O)(=O)Nc2ncccc2/C=C/c2ccccc2)cc1,152 to 155
3,O=C(NCc1cccnc1)c1cc(-n2cnn(Cc3ccc(F)cc3)c2=O)[nH]n1,235 to 236
4,C=CC(C)(C)c1c(C=O)c2ccc(Cl)cc2n1COCc1ccccc1,227
5,Cc1ccc(S(=O)(=O)N2CCCC2c2cccc(C)c2)cc1 (racemic),79
6,CC(=O)CCCCCCCCCCCCC(C)=O,80
7,CCCCCCCCCCCCOC(=O)C(N)CCCNC(=N)N (configuration not stated),125 to 130
8,CCN(C)C(=O)c1cc(-c2ccccc2)oc1-c1ccc(OC)c(OC)c1,74
9,CC(C(=O)O)c1ccc2cc(OCc3ccc4ccc(Cl)cc4n3)ccc2c1 (configuration not stated),188 to 190
10,CC1(C)CC(=O)c2c(Sc3ccccc3)sc(C(=O)N3CCCC3)c2C1,140
11,CCCN(CCCCN1CCN(c2ccccc2)CC1)C1CCc2nc(N)sc2C1 (configuration not stated),156
12,COP(=O)(Cc1nc2ccccc2nc1CP(=O)(OC)OC)OC,115 to 116
13,Cn1nc(S(N)(=O)=O)c2c(F)cccc21,221 to 223
14,Cn1ncc(C(=O)N2CCCC2)c1C(=O)Nc1ccn2nc(-c3cccnc3)nc2c1,226 to 228
15,CCCCOC(=O)C(NC(=O)OCC(Cl)(Cl)Cl)n1cnc2ncncc21 (configuration not stated),114 to 116
16,NC(=O)c1ccc2[nH]nnc2c1,178 to 184
17,Nc1cc(O)ccc1Oc1ccccc1,156 to 157
18,O=C(Nc1ccccc1C(=O)O)C(=Cc1ccccc1)C(=O)Nc1ccccc1C(=O)O,247 to 249
19,Nc1ccc(NCCO)c(S(=O)(=O)CCO)c1,130
20,O=C1OC(CO)CN2C1=Cc1ccsc1S2(=O)=O (configuration not stated),210 to 212
21,COc1cc(Nc2ccc(CCCc3ccc(Cl)c(Cl)c3)cc2)c(C(=O)O)cc1[N+](=O)[O-],200 to 201
22,CC1=C(C)C(=O)C(CCCCC#CCCCC#CC(=O)O)=C(C)C1=O,49 to 51
23,CN1C(N2CCCCC2)=C2N=c3cc(Cl)ccc3=C2Oc2ccccc21,244 to 245
24,CCc1nn(-c2ccc(F)cc2)c2cc(C3=CCC(C(=O)O)CC3)ccc12 (configuration not stated),214 to 216
25,CC(C)(C)OC(=O)CC1=CCCCC1n1nc(-c2c(-c3ccccc3)nn3ccccc23)ccc1=O (configuration not stated),146 to 147
26,O=C1C2=CSCCN2C(=O)N1c1cccc(Cl)c1F,118 to 120
27,NCCc1c[nH]c2ccc3c(=O)n(CC4CCCCO4)ccc3c12 (configuration not stated),260 to 262
